Test results: patent US4156016A, “Indole compounds and process for their preparation” (Hoffmann-La Roche Inc., priority 1977, dated 1979)
pIC50: −log10 of the molar value. Like-named read-outs stand apart in the source and are kept apart here.

Columns and labels:
[1] = system: Collagen-Induced Platelet Aggregation; experiment: Inhibition of collagen-induced platelet aggregation in human platelet-rich plasma; format: cell-based; conditions: for inhibition at 2.5 µM / inhibition at 5 µM / inhibition at 15 µM / inhibition at 25 µM / inhibition at 50 µM: read-out: Percent Inhibition
Protocol: (§1) Venous blood was collected from human volunteers in siliconized 20 ml. […] Platelet rich plasma (PRP) was separated from the red blood cells by centrifugation at 180×g for 15 minutes at room temperature. Platelet poor plasma (PPP) was prepared by centrifuging PRP at 1000×g for 2 minutes.
(§2) Techniques established by Born et al., J. Physiol. […] PRP (1 ml.) was added to a siliconized cuvette containing a siliconized stirring bar and placed in a densitometer maintained at 37° C. and stirred at 1000 RPM. Various concentrations of test compounds were added in 50 μl of saline and incubated with PRP for 5 minutes. Aggregation was initiated by the addition of sufficient concentrations of ADP (Sigma Chemical Co.), epinephrine HCl (Parke, Davis & Co., Detroit, Michigan), or human mammary gland collagen (obtained from Roosevelt Hospital, N.Y.) to give about 60% of maximum aggregation response. The light transmission through PPP was used to determine maximum response. The percent inhibition of aggregation caused by the drug was calculated from the strip chart recordings at the point of maximum collagen response.

[2] = system: Epinephrine induced aggregation; experiment: Inhibition of epinephrine-induced platelet aggregation (second wave) in human platelet-rich plasma; format: cell-based; conditions: for inhibition at 10 µM / inhibition at 20 µM / inhibition at 25 µM / inhibition at 50 µM / inhibition at 100 µM: Homo sapiens, Platelet, read-out: Percent Inhibition
Protocol: as §1, §2

Acute toxicity in mice = conditions: mouse, in vivo
Protocol: CF-IS mice of both sexes weighing 17-25 grams were used. The compounds were ground in a mortar and suspended in 5% gum acacia for oral or intraperitoneal administration. Eight to ten mice were used per dose level. […] The LD50 was calculated by the method of Miller et al., Proc. Soc. Exp. Biol. Med., 57, pages 261-264 (1944).

[3] = Gastric ulcer induction (rats); design: species or system male Wistar rats; conditions: rat, in vivo, po
Protocol: The test is a modification of that described by Brodie et al., Gastroenterology, 53, pages 604-610 (1967). Male Wistar rats (Royal Hart Laboratories) were deprived of food for 18 hours prior to testing. Tap water was permitted ad libitum. Test compounds were administered orally four hours to autopsy. The rats were sacrificed under ethyl ether anesthesia, opened along the ventral midline and the stomachs removed. The stomach was divided along the lesser curvature, everted, rinsed in saline, and examined for the presence of focal hemorrhage. Ulcers were rated on an all or none basis for incidence and, in addition, each stomach is graded for severity of ulcers formed. Ulcer scores: 0=none, 1=trace, 2=mild, 3=moderate, and 4=severe. The results of the ulcer scores obtained were subjected to statistical analysis by the student `t` test.

[4] = Central and peripheral pharmacological activity (statement)

Structure (SMILES): N#Cc1[nH]c2ccc(C(O)(C(F)(F)F)C(F)(F)F)cc2c1-c1ccccc1 [nitrile, 3-Phenyl-5-[2,2,2-trifluoro-1-hydroxy-1-(trifluoromethyl)ethyl]indole-2-carbonitrile]
- Δ light transmission ([1]; 2.5 μM, Expt. I): 49 units
- Δ light transmission ([1]; 2.5 μM, Expt. II): 50 units
- Δ light transmission ([1]; 5 μM, Expt. I): 24 units
- Δ light transmission ([1]; 5 μM, Expt. II): 20 units
- Δ light transmission ([1]; 15 μM, Expt. I): 8 units
- Δ light transmission ([1]; 15 μM, Expt. II): 7 units
- Δ light transmission ([1]; 25 μM, Expt. I): 5 units
- Δ light transmission ([1]; 25 μM, Expt. II): 5 units
- Δ light transmission ([1]; 50 μM, Expt. I): 4 units
- Δ light transmission ([1]; 50 μM, Expt. II): 3 units
- inhibition at 2.5 µM ([1]; Homo sapiens, Platelet, 2.5 μM, Expt. I): 24.6%
- inhibition at 2.5 µM ([1]; Homo sapiens, Platelet, 2.5 μM, Expt. II): 16.7%
- inhibition at 5 µM ([1]; Homo sapiens, Platelet, 5 μM, Expt. I): 63.1%
- inhibition at 5 µM ([1]; Homo sapiens, Platelet, 5 μM, Expt. II): 66.6%
- inhibition at 15 µM ([1]; Homo sapiens, Platelet, 15 μM, Expt. I): 87.7%
- inhibition at 15 µM ([1]; Homo sapiens, Platelet, 15 μM, Expt. II): 88.3%
- inhibition at 25 µM ([1]; Homo sapiens, Platelet, 25 μM, Expt. I): 92.4%
- inhibition at 25 µM ([1]; Homo sapiens, Platelet, 25 μM, Expt. II): 91.6%
- inhibition at 50 µM ([1]; Homo sapiens, Platelet, 50 μM, Expt. I): 93.8%
- inhibition at 50 µM ([1]; Homo sapiens, Platelet, 50 μM, Expt. II): 95%
- pIC50 ([1]; Homo sapiens, Platelet, Table 7, read-out: Inhibition of collagen-induced platelet aggregation, Activity IC50): 5.46
- pIC50 ([1]; incubation in human citrated platelet-rich plasma, read-out: IC50 collagen): 5.46
- Δ light transmission ([2]; 10 μM, Expt. I): 45 units
- Δ light transmission ([2]; 10 μM, Expt. II): 47 units
- Δ light transmission ([2]; 20 μM, Expt. I): 30 units
- Δ light transmission ([2]; 20 μM, Expt. II): 34 units
- Δ light transmission ([2]; 25 μM, Expt. I): 25 units
- Δ light transmission ([2]; 25 μM, Expt. II): 30 units
- Δ light transmission ([2]; 50 μM, Expt. I): 18 units
- Δ light transmission ([2]; 50 μM, Expt. II): 14 units
- Δ light transmission ([2]; 100 μM, Expt. I): 11 units
- Δ light transmission ([2]; 100 μM, Expt. II): 9 units
- inhibition at 10 µM ([2]; 10 μM, Expt. I): 0%
- inhibition at 10 µM ([2]; 10 μM, Expt. II): 6%
- inhibition at 20 µM ([2]; 20 μM, Expt. I): 33.3%
- inhibition at 20 µM ([2]; 20 μM, Expt. II): 32%
- inhibition at 25 µM ([2]; 25 μM, Expt. I): 44.4%
- inhibition at 25 µM ([2]; 25 μM, Expt. II): 40%
- inhibition at 50 µM ([2]; 50 μM, Expt. I): 60%
- inhibition at 50 µM ([2]; 50 μM, Expt. II): 71%
- inhibition at 100 µM ([2]; 100 μM, Expt. I): 75%
- inhibition at 100 µM ([2]; 100 μM, Expt. II): 82%
- pIC50 ([2]; incubation in human citrated platelet-rich plasma): 4.40
- LD50 at 120 h (Acute toxicity in mice; ip): 750 mg/kg
- LD50 at 120 h (Acute toxicity in mice; po): > 1000 mg/kg
- TD50 at 4 h [3]: > 250 mg/kg
- central and peripheral pharmacological activity (in words) [4]: devoid of central and peripheral pharmacological activity
